Reference: ChEMBL document CHEMBL1135380, “Synthesis and structure-activity relationship of 2-(aminoalkyl)-2,3,3a,8-tetrahydrodibenzo[c,f]isoxazolo[2,3-a]azepine derivatives: a novel series of 5-HT(2A/2C) receptor antagonists. Part 1” (Bioorg Med Chem Lett, 2002)

What was measured:
Rattus norvegicus = assay: In vivo activity in mCPP challenge test were performed in male Wistar rats by subcutaneous administration; type: functional; conditions: Rattus norvegicus, sc; read-out: ED50
[1] = target: T1, 5-hydroxytryptamine receptor 2C (Homo sapiens, UniProt P28335); assay: Binding affinity for human cloned 5-hydroxytryptamine 2C receptor expressed in CHO cells using [3H]mesulergine as radioligand; type: cell-based
T1 sequence (P28335 whole entry): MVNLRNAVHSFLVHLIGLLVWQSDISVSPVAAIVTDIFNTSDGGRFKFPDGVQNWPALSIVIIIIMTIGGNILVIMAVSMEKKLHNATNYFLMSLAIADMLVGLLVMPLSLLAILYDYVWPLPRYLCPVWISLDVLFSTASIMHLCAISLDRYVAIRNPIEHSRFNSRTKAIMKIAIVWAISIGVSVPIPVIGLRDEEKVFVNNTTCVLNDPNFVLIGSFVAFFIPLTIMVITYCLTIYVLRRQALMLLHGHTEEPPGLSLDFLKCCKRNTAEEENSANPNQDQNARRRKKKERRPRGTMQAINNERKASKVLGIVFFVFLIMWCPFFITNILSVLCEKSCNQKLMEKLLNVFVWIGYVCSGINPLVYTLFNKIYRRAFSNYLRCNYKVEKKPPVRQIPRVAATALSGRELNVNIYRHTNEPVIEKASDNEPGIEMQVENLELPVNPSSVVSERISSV

D(3) dopamine receptor = D(3) dopamine receptor (Homo sapiens, UniProt P35462); assay: Binding affinity for human cloned Dopamine receptor D3
Sequence of D(3) dopamine receptor (P35462 whole entry): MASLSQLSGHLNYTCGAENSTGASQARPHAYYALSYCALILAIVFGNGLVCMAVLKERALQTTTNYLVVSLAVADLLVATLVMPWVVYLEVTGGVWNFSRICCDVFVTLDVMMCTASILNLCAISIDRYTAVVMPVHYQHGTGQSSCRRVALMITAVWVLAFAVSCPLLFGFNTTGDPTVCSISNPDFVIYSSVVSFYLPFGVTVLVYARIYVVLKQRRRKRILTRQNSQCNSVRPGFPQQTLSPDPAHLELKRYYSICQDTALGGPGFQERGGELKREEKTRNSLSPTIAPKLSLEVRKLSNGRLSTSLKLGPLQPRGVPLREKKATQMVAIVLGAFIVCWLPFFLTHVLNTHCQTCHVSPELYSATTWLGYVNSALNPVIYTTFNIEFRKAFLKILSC

[2] = target: T2, Alpha-2A adrenergic receptor (Homo sapiens, UniProt P08913); assay: Binding affinity for human cloned Alpha-2A adrenergic receptor
T2 sequence (P08913 whole entry): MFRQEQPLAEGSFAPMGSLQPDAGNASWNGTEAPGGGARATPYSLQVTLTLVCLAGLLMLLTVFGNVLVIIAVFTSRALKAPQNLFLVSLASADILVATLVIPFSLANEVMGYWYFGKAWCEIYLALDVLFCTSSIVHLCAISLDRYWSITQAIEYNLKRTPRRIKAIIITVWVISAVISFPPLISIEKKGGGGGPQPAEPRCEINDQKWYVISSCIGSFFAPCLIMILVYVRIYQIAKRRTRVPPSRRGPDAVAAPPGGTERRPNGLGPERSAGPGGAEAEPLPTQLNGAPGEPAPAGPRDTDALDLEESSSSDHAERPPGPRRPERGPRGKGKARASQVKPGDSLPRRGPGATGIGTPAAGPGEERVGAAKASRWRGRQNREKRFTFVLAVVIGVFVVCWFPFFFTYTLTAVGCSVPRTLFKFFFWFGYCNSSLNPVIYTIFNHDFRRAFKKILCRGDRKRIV

[3] = target: T3, 5-hydroxytryptamine receptor 2C (Rattus norvegicus) (UniProt P08909); assay: In vivo activity in rat mCPP challenge test following p.o. administration.; type: functional, organism-based
T3 sequence (whole entry): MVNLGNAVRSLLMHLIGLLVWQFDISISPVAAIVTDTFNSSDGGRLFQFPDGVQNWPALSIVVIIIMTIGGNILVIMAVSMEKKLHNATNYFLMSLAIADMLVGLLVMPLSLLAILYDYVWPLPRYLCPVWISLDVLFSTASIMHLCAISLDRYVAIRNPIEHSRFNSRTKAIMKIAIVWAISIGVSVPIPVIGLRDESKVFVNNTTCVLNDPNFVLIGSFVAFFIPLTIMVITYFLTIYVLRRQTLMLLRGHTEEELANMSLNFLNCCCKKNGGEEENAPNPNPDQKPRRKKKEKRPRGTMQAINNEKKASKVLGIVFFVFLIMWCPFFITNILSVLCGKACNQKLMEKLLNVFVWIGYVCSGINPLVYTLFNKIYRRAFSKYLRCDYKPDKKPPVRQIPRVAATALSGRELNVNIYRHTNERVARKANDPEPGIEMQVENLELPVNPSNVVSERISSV

Histamine H1 receptor = Histamine H1 receptor (Homo sapiens, UniProt P35367); assay: Binding affinity for human cloned Histamine H1 receptor expressed in CHO cells using [3H]pyrilamine as radioligand; type: cell-based
Sequence of Histamine H1 receptor (P35367 whole entry): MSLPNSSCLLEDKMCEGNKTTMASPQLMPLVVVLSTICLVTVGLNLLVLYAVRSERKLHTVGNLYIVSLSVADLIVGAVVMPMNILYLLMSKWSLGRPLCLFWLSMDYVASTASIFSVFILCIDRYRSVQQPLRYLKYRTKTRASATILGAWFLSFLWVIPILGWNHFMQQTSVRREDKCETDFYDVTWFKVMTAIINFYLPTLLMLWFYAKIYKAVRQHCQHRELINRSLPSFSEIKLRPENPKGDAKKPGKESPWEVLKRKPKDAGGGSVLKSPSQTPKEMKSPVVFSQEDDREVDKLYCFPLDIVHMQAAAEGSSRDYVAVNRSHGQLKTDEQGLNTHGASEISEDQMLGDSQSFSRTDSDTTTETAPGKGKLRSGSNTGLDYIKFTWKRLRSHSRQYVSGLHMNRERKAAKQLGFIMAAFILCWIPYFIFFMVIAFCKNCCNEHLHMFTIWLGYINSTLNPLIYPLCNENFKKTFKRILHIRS

[4] = target: 5-hydroxytryptamine receptor 7 (Homo sapiens, UniProt P34969); assay: Binding affinity for human cloned 5-hydroxytryptamine 7 receptor
Sequence of 5-hydroxytryptamine receptor 7 (P34969 whole entry): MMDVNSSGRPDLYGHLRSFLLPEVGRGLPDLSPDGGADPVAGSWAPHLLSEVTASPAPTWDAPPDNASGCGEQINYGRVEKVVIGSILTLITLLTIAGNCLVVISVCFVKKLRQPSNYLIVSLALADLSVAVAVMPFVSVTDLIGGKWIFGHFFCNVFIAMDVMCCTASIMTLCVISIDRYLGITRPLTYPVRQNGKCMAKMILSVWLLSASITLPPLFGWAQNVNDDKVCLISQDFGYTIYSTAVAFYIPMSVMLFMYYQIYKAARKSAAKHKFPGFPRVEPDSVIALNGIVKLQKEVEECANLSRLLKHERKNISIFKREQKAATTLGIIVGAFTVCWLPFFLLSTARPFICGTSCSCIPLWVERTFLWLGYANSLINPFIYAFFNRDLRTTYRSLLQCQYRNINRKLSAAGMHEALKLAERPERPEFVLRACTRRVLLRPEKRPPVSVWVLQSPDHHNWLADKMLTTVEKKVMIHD

[5] = target: T4, Alpha-1A adrenergic receptor (Homo sapiens, UniProt P35348); assay: Binding affinity for human cloned Alpha-1A adrenergic receptor
T4 sequence (P35348 whole entry): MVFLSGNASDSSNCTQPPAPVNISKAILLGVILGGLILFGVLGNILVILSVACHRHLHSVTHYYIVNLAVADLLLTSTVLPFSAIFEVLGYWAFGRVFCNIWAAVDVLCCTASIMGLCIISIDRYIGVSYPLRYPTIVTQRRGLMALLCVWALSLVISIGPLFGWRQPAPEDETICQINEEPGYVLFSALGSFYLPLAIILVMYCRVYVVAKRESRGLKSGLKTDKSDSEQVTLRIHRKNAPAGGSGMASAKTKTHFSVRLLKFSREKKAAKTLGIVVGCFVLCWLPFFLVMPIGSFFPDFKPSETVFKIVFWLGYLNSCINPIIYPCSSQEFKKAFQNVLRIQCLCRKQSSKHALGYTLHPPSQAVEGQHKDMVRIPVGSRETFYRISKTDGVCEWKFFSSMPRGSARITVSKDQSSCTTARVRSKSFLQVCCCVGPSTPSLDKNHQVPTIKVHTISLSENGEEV

D(4) dopamine receptor = target: T5, D(4) dopamine receptor (Homo sapiens, UniProt P21917); assay: Binding affinity for human cloned Dopamine receptor D4
T5 sequence (P21917 whole entry): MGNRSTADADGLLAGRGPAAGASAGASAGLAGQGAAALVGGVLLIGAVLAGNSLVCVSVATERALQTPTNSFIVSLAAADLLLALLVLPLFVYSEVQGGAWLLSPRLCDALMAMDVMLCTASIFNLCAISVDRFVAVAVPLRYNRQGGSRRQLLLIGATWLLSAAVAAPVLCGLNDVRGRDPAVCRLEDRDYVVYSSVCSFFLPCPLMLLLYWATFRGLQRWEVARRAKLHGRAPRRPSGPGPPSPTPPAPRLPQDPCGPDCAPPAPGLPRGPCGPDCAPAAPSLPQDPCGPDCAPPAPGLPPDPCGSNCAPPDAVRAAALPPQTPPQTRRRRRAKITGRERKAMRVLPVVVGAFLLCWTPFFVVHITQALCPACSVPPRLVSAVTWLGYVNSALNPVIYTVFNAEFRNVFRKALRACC

[6] = target: T6, 5-hydroxytryptamine receptor 1A (Homo sapiens, UniProt P08908); assay: Binding affinity for human cloned 5-hydroxytryptamine 1A receptor
T6 sequence (P08908 whole entry): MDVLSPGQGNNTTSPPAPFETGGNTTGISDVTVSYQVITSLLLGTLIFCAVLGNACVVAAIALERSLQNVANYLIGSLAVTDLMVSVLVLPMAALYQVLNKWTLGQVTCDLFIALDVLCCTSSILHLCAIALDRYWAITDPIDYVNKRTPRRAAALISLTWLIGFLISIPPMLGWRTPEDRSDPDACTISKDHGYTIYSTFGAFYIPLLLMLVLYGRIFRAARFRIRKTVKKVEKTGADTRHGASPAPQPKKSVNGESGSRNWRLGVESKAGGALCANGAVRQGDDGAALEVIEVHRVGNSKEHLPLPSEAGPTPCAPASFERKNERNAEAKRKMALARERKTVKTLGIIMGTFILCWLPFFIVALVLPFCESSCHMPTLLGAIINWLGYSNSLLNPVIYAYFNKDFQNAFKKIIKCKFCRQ

[7] = target: 5-hydroxytryptamine receptor 2A (Homo sapiens, UniProt P28223); assay: biochemical; type: cell-based, L929
Sequence of 5-hydroxytryptamine receptor 2A (P28223 whole entry): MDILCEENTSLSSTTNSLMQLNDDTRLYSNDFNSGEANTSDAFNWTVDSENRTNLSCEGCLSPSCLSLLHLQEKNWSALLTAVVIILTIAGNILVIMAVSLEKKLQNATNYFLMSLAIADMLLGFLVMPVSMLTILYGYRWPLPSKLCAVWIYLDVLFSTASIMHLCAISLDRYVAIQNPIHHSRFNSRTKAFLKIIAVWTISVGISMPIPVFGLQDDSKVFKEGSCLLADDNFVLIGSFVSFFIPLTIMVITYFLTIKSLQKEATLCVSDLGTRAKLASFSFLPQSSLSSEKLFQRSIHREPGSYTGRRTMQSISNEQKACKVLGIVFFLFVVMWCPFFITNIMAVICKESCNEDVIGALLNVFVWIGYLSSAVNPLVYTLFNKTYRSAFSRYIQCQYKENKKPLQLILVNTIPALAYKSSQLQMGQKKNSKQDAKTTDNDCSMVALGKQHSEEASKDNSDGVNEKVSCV
Description: Binding affinity for human cloned 5-hydroxytryptamine 2A receptor expressed in L929 cells using [125I]R91150 as radioligand

[8] = target: 5-hydroxytryptamine receptor 1D (Homo sapiens, UniProt P28221); assay: Binding affinity for human cloned 5-hydroxytryptamine 1D receptor
Sequence of 5-hydroxytryptamine receptor 1D (P28221 whole entry): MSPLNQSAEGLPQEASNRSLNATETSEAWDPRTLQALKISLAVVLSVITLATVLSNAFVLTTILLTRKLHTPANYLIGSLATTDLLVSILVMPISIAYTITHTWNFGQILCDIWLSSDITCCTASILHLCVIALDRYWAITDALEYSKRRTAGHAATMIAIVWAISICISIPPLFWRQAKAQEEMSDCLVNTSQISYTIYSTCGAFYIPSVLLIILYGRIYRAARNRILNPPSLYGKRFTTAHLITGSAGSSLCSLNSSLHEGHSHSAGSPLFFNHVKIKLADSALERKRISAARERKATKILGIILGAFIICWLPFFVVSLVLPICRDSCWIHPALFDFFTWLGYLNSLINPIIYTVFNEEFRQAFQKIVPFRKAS

[9] = target: Serotonin 3 (5-HT3) receptor; assay: Binding affinity for human cloned 5-hydroxytryptamine 3 receptor; type: protein-complex assay
[10] = target: T7, Alpha-2C adrenergic receptor (Homo sapiens, UniProt P18825); assay: Binding affinity for human cloned Alpha-2C adrenergic receptor
T7 sequence (P18825 whole entry): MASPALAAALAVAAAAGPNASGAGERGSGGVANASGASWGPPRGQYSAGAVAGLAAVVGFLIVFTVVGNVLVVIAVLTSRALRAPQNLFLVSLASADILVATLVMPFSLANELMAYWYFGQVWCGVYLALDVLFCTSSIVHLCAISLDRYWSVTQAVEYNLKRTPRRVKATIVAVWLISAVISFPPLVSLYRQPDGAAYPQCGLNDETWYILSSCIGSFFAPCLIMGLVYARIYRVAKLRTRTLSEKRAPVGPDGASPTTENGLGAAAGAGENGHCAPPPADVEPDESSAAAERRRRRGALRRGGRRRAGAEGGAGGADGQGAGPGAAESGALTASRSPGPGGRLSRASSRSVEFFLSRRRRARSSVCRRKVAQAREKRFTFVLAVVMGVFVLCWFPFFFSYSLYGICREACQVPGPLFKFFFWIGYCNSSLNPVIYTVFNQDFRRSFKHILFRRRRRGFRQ

D(2) dopamine receptor = D(2) dopamine receptor (Homo sapiens, UniProt P14416); assay: Binding affinity for human cloned Dopamine receptor D2L
Sequence of D(2) dopamine receptor (P14416 whole entry): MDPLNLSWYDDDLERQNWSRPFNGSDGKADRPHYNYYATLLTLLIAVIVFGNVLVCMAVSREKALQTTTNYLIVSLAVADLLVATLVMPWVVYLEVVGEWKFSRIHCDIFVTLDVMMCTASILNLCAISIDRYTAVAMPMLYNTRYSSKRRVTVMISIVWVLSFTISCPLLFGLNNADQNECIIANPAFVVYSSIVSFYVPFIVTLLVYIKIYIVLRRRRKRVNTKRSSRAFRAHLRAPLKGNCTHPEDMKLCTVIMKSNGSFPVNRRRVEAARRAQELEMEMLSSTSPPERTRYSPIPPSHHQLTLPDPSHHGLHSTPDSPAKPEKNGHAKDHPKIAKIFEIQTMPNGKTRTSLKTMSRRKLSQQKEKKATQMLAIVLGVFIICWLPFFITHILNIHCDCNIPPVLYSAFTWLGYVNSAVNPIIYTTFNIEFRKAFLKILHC

IC50 [1]: 7.08 nM | IC50 (D(3) dopamine receptor): 339 nM | IC50 [2]: 437 nM | ED50 [3]: > 2.5 mg/kg | IC50 (Histamine H1 receptor): 10.7 nM | IC50 [4]: 18.6 nM | IC50 [5]: 191 nM | IC50 (D(4) dopamine receptor): 302 nM | IC50 [6]: > 1000 nM | IC50 [7]: 13.2 nM | IC50 [8]: > 1000 nM | pIC50 [9]: < 6 | IC50 [10]: > 1000 nM | IC50 (D(2) dopamine receptor): 1700 nM
SMILES: CNCC1CC2c3ccccc3Cc3ccccc3N2O1 (stereo not given)
ED50 (Rattus norvegicus): 0.16 mg/kg
